Assay results from patent US8901118B2, “Compounds and methods for kinase modulation, and indications therefor” (Plexxikon Inc., priority 2010, dated 2014).

Columns and labels:
Fms kinase = Fms kinase (Homo sapiens, UniProt P07333); test: Fms kinase biochemical activity assay (AlphaScreen, biotin-(E4Y)10 phosphorylation); settings: 100 μM ATP; read-out: Biochemical Inhibition IC50 Fms
Protocol: In one assay the biochemical activity IC50 values are determined with respect to inhibition of Fms kinase activity, where inhibition of phosphorylation of a peptide substrate is measured as a function of compound concentration. Compounds to be tested, dissolved in DMSO (1 μL), are added to a white 384-well plate (Costar #3705). Working stocks of Fms kinase (Invitrogen #PV3249), biotin-(E4Y)10 substrate (Upstate Biotech, Cat#12-440), and ATP (Sigma, Cat#A-3377) are prepared in 25 mM Hepes pH 7.5, 0.5 mM MgCl2, 2 mM MnCl2, 2 mM DTT, 0.01% BSA, and 0.01% Tween-20. All components are added to the 384-well plate for a final concentration of 1 ng/well Fms, 30 nM biotin-(E4Y)10 (Upstate Biotechnology) and 100 μM ATP in a volume of 20 μL. Each sample is at 5% DMSO. The plate is then incubated for 20 minutes at 30° C. Just before use, working stocks of donor and acceptor beads from the AlphaScreen PY20 Detection Kit (PerkinElmer, Cat#676601M) are prepared in 25 mM Hepes pH 7.5, pH 7.4, 100 mM EDTA, 0.01% BSA. To stop the reaction, the plate is uncovered in the dark and 5 μL of Donor Beads solution (Streptavidin beads) is added to each well. The plate is incubated at room temperature for 20 minutes. Five microliters of Acceptor Beads solution (PY20 coated beads) are then added to each well. The final concentration of each bead is 10 μg/mL. The plates are incubated at room temperature for 60 minutes. Fluorescence signal is recorded on the Envision reader. Phosphorylated substrate results in binding of the PY20 antibody and association of the donor and acceptor beads such that signal correlates with kinase activity. The signal vs. compound concentration is used to determine the IC50.

BCR-FMS BaF3 cells = target: T1, BCR-FMS BaF3 cells (Homo sapiens, UniProt P07333); test: BaF3 BCR-FMS cell proliferation assay (ATPlite); assay type: cell-based; settings: read-out: Inhibition of Cell Proliferation IC50, BCR/BaF3 Fms
T1 construct: fused on or other part: P11274 (Breakpoint cluster region protein)
T1 sequence (P07333 582-910): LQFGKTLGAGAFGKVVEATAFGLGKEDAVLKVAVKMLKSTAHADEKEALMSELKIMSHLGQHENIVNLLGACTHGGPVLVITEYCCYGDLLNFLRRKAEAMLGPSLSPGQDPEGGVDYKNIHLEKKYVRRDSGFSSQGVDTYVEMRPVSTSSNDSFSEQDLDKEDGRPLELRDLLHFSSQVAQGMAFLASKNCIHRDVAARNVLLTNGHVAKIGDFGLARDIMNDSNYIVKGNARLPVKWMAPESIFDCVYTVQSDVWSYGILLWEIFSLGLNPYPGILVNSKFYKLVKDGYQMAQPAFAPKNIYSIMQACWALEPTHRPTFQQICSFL
Protocol: (§1) Compounds are assessed in a variety of cell based assays. For example BaF3 cells engineered with any of BCR-FMS, BCR-KIT, BCR-FLT3, BCR-NTRK1, BCR-NTRK2, and BCR-NTRK3, are used in cell proliferation assays to assess inhibitory activity of Fms, Kit, Flt-3, TrkA, TrkB, and TrkC, respectively. An MV-4-11 (leukemia) cell proliferation assay is used to assess inhibitory activity in Flt-3, and SKNSH (human neuroblastoma) cell proliferation assay is used to assess efficacy of Fms/Trk inhibitors. Additional cells may be assayed similarly to assess the efficacy of Fms/Trk inhibitors, such as MiaPaCa (human pancreatic cancer) and Capan-1 (human pancreatic carcinoma) cells. Reagent and assay conditions are as follows: • BaF3 cells: • Maintained in RPMI containing 10% FBS, 1% PenStrep, 1% NEAA, and 1% L-Glutamine, supplemented with 1 mg/mL G418 and 5% WEHI-CM (or recombinant murine IL-3). • Confluent cells are split 1:50 to 1:100 every 3-4 days. • MV-4-11 cells: • Maintained in Iscove's Modified Dulbecco's Medium containing 10% FBS. • Confluent cells are split 1:4 every 3-4 days. • SKNSH cells: RPMI containing 10% FBS. On day 1, cells are counted, then centrifuged in a conical tube for 5 minutes at 1000 rpm. The supernatant is removed and cells are re-suspended as follows: • BaF3: resuspend in growth media +1 mg/mL G418 (without WEHFIL-3) to 2×10^5 cells/mL. • MV-4-11: resuspend in growth media to 5×10^5 cells/mL. • SKNSH: resuspend in growth media to 2×10^4 cells/mL. The cells are plated (50 μL, 150 μL for SKNSH cells) in each well of a 96-well dish (Corning 3610) and incubated at 37° C. in 5% CO2 overnight, cells plated to a final concentration of cells as follows: • BaF3: 10,000 cells per well. • MV-4-11: 25,000 cells per well. • SKNSH: 3,000 cells per well. On day 2, compound at a maximum concentration of 5 mM is serially diluted 1:3 for a total of 8 point titration with DMSO as a control. A 1 μL aliquot of each dilution point is added to 249 μL growth media and 50 μL is added to a well containing cells, providing 10 μM compound for the maximum concentration point. The cells are incubated for 3 days at 37° C. in 5% CO2. For SKNSH cells, a 0.75 μL aliquot of appropriate dilution in DMSO is added to 150 μL of cells. On day 5, ATPlite 1 step Luminescence Assay System (Perkin Elmer #6016739) is brought to room temperature along with the cell cultures. ATPlite is added to each well as follows: • BaF3: 25 μL per well. • MV-4-11: 40 μL per well. • SKNSH: 20 μL per well. The cells are incubated at room temperature for 10 minutes, then luminescence is read on Safire reader. The measured luminescence correlates directly with cell number, such that the reading as a function of compound concentration is used to determine the IC50 value.
(§2) It is understood that the results of these assays may vary as assay conditions are varied. Inhibition levels determined under the conditions described herein represent a relative activity for the compounds tested under the specific conditions employed. The cell based assays are likely to show variability due to the complexity of the system and the sensitivity thereof to any changes in the assay conditions. […] Results for compounds that are tested and show substantially no inhibition below the highest tested concentration are represented as “-” in the tables below. In some instances, the compounds were not tested in all of the assays, or assay results were not valid, as indicated by NA in the tables below.

BCR-NTRK3 BaF3 cells = target: T2, BCR-NTRK3 BaF3 cells (Homo sapiens, UniProt Q16288); test: BaF3 BCR-NTRK3 cell proliferation assay (ATPlite); assay type: cell-based; settings: read-out: Inhibition of Cell Proliferation IC50, BCR/BaF3 TrkC
T2 construct: fused on or other part: P11274 (Breakpoint cluster region protein)
T2 sequence (Q16288 whole entry, the tested form may be a part): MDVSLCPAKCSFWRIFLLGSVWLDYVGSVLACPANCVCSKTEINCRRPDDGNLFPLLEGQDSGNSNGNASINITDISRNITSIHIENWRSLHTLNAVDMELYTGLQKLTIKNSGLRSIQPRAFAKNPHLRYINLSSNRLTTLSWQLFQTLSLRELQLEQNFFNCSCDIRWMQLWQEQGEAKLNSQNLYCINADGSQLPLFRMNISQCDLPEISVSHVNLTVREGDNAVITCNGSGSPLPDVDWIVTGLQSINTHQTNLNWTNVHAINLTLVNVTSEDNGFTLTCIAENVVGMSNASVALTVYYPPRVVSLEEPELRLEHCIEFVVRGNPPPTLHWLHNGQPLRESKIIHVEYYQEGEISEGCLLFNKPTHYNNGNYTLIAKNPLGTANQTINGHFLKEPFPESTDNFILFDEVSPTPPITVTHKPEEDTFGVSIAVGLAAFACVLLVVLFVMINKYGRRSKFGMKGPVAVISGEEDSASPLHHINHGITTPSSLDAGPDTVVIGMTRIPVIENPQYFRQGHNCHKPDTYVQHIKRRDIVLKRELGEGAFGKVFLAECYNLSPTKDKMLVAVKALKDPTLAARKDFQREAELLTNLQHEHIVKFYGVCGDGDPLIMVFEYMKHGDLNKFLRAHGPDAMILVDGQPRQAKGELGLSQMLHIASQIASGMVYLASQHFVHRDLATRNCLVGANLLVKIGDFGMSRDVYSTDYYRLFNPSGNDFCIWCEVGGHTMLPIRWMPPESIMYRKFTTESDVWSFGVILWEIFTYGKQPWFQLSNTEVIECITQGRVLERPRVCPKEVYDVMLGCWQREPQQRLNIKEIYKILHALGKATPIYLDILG
Protocol: as §1, §2

Fms kinase, sequence (P07333 20-972): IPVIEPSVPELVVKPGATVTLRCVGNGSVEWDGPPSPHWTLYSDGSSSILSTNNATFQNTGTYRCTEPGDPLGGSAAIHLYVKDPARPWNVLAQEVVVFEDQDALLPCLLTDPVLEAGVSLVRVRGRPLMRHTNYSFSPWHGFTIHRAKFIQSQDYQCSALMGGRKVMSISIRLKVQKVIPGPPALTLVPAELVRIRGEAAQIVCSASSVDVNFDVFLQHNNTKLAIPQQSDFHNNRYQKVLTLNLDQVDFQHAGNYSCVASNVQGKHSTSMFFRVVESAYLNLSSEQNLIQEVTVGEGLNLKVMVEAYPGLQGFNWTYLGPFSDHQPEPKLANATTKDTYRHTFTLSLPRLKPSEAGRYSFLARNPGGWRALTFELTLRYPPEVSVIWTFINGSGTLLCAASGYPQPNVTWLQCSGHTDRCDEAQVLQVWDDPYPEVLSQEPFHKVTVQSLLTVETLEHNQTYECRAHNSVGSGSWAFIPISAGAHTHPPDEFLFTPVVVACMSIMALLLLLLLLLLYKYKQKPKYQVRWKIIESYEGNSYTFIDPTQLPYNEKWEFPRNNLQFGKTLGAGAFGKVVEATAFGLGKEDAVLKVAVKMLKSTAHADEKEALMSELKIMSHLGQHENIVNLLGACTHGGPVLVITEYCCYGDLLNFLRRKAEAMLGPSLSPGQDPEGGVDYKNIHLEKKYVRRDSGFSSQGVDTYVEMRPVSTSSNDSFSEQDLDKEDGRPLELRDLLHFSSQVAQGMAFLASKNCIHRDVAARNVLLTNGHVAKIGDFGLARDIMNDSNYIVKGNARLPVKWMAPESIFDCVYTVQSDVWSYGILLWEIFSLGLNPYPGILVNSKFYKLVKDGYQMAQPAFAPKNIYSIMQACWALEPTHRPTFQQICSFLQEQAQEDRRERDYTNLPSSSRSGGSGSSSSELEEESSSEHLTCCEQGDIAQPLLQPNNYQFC

Row | SMILES | IC50 (Fms kinase) | IC50 (BCR-FMS BaF3 cells) | IC50 (BCR-NTRK3 BaF3 cells)
1 | COc1ccc(Nc2ccc(C(=O)c3c[nH]c4ncnc(NC(C)C)c34)c(F)n2)cn1 [Compound P-4066, [2-fluoro-6-[(6-methoxy-3-pyridyl)amino]-3-pyridyl]-[4-(isopropylamino)-7H-pyrrolo[2,3-d]pyrimidin-5-yl]methanone] | < 10 nM | < 10 nM | < 10 nM
2 | COc1ccc(Nc2ccc(C(=O)c3c[nH]c4ncnc(N5CCCCC5)c34)c(F)n2)cn1 [Compound P-4069, [2-fluoro-6-[(6-methoxy-3-pyridyl)amino]-3-pyridyl]-[4-(1-piperidyl)-7H-pyrrolo[2,3-d]pyrimidin-5-yl]methanone] | < 1000 nM | > 1000 nM | > 1000 nM
3 | COc1ccc(Nc2ccc(C(=O)c3c[nH]c4ncnc(N5CCOCC5)c34)c(F)n2)cn1 [Compound P-4070, [2-fluoro-6-[(6-methoxy-3-pyridyl)amino]-3-pyridyl]-(4-morpholino-7H-pyrrolo[2,3-d]pyrimidin-5-yl)methanone] | > 1000 nM | > 1000 nM | > 1000 nM
4 | COc1ccc(Nc2ccc(C(=O)c3c[nH]c4ncnc(NCC5CCCO5)c34)c(F)n2)cn1 (stereo not drawn) [Compound P-4073, [2-fluoro-6-[(6-methoxy-3-pyridyl)amino]-3-pyridyl]-[4-(tetrahydrofuran-2-ylmethylamino)-7H-pyrrolo[2,3-d]pyrimidin-5-yl]methanone] | < 100 nM | < 100 nM | < 10 nM
5 | CCN1CCC(Nc2ncnc3[nH]cc(C(=O)c4ccc(Nc5ccc(OC)nc5)nc4F)c23)CC1 [Compound P-4074, [4-[(1-ethyl-4-piperidyl)amino]-7H-pyrrolo[2,3-d]pyrimidin-5-yl]-[2-fluoro-6-[(6-methoxy-3-pyridyl)amino]-3-pyridyl]methanone] | < 100 nM | < 1000 nM | < 10 nM
6 | COc1ccc(Nc2ccc(C(=O)c3c[nH]c4ncnc(NC5CCCC5)c34)c(F)n2)cn1 [Compound P-4075, [4-(cyclopentylamino)-7H-pyrrolo[2,3-d]pyrimidin-5-yl]-[2-fluoro-6-[(6-methoxy-3-pyridyl)amino]-3-pyridyl]methanone] | < 10 nM | < 10 nM | < 10 nM
7 | COc1ccc(Nc2ccc(C(=O)c3c[nH]c4ncnc(NC5CCC5)c34)c(F)n2)cn1 [Compound P-4076, [4-(cyclobutylamino)-7H-pyrrolo[2,3-d]pyrimidin-5-yl]-[2-fluoro-6-[(6-methoxy-3-pyridyl)amino]-3-pyridyl]methanone] | < 10 nM | < 100 nM | < 10 nM

Second part, the compound after the results:

Row | IC50 (Fms kinase) | IC50 (BCR-FMS BaF3 cells) | IC50 (BCR-NTRK3 BaF3 cells) | SMILES
8 | < 10 nM | < 10 nM | < 10 nM | COc1ccc(Nc2ccc(C(=O)c3c[nH]c4ncnc(NCC5CC5)c34)c(F)n2)cn1 [Compound P-4067, [4-(cyclopropylmethylamino)-7H-pyrrolo[2,3-d]pyrimidin-5-yl]-[2-fluoro-6-[(6-methoxy-3-pyridyl)amino]-3-pyridyl]methanone]
9 | < 10 nM | < 10 nM | < 10 nM | CCCNc1ncnc2[nH]cc(C(=O)c3ccc(Nc4ccc(OC)nc4)nc3F)c12 [Compound P-4068, [2-fluoro-6-[(6-methoxy-3-pyridyl)amino]-3-pyridyl]-[4-(propylamino)-7H-pyrrolo[2,3-d]pyrimidin-5-yl]methanone]
10 | < 1000 nM | < 100 nM | < 10 nM | COc1ccc(Nc2ccc(C(=O)c3c[nH]c4ncnc(NCc5ccc(C(F)(F)F)nc5)c34)c(F)n2)cn1 [Compound P-4071, [2-fluoro-6-[(6-methoxy-3-pyridyl)amino]-3-pyridyl]-[4-[[6-(trifluoromethyl)-3-pyridyl]methylamino]-7H-pyrrolo[2,3-d]pyrimidin-5-yl]methanone]
11 | < 100 nM | < 100 nM | < 10 nM | COc1ccc(Nc2ccc(C(=O)c3c[nH]c4ncnc(N[C@@H](C)c5ccc(F)cc5)c34)c(F)n2)cn1 [Compound P-4072, [2-fluoro-6-[(6-methoxy-3-pyridyl)amino]-3-pyridyl]-[4-[[(1S)-1-(4-fluorophenyl)ethyl]amino]-7H-pyrrolo[2,3-d]pyrimidin-5-yl]methanone]
